As a reminder, the IC50 is the concentration that inhibits the measured activity by half.

Experimental findings from the Kinase Knowledgebase extract (Sharma et al. 2016) are described below.

The structures appear in SMILES notation. Where only a bound is given, the exact number is not on record here.

The target of this assay is PIK3CG (human) (UniProt P48736). The assay is described as follows: Assessment of PIK3CG Kinase Activity.
PIK3CG (human), sequence (P48736 whole entry, looked up): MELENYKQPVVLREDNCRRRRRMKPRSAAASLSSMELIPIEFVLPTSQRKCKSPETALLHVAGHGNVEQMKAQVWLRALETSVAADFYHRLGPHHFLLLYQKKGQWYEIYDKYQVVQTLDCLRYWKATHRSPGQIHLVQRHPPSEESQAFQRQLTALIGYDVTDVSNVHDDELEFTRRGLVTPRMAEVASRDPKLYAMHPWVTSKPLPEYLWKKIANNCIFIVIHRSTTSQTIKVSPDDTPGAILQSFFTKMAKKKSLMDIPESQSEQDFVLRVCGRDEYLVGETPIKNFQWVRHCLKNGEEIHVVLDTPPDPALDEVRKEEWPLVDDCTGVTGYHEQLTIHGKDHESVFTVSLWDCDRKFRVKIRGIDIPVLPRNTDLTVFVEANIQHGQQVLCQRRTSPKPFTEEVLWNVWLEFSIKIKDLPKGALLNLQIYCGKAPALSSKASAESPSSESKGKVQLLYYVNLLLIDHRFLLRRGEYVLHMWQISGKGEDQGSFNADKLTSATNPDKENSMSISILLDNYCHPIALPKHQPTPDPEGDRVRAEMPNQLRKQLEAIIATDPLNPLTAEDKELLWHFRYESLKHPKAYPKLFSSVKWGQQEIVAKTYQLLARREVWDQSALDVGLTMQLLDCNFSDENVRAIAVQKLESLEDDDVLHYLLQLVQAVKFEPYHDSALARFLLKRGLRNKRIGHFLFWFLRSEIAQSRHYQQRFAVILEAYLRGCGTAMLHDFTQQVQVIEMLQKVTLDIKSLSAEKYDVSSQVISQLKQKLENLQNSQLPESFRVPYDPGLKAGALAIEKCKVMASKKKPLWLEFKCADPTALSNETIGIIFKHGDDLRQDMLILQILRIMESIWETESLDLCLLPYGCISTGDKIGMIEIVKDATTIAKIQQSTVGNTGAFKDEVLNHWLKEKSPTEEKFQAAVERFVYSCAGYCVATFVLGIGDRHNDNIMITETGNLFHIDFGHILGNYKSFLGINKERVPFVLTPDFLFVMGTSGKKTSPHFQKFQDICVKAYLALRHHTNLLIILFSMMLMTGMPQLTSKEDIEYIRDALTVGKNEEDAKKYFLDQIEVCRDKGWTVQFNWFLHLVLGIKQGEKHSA

As for `CC(=O)Nc1nc2c(s1)-c1c(cnn1-c1ccc(C(=O)NCCCCCCNC(=O)Cc3ccccc3)cc1)CC2`, the IC50 is below 800 nM.

For the molecule `CC(=O)Nc1nc2c(s1)-c1nc(N3CCOCC3)ncc1C2`, the 50% inhibitory concentration (IC50) was below 800 nM.

On to `CC(=O)Nc1nc2c(s1)-c1c(c(-c3ccco3)nn1-c1ccc(C(=O)N[C@H]3CC[C@H](N4CCCC4)CC3)cc1Cl)CC2`, for which the IC50 is below 800 nM.

`CC(=O)Nc1nc2c(s1)-c1nn(-c3ccccc3Br)c(-c3ccco3)c1CC2` displayed a half-maximal inhibitory concentration (IC50) below 800 nM.

Consider `CC(=O)Nc1nc2c(s1)-c1c(cnn1C(=O)c1ccccc1Cl)CC2`, for which the half-inhibitory concentration (IC50) is below 800 nM.

As to `CC(=O)Nc1nc2c(s1)-c1nc(-c3ccccn3)ncc1CC2`, the half-maximal inhibitory concentration (IC50) was below 800 nM.

As to `CN(C)C(=O)Nc1nc2c(s1)-c1nc(N(C)C)ncc1CC2`, the IC50 was below 800 nM.

Regarding `CC(=O)Nc1nc2c(s1)-c1c(cnn1-c1ccc(C(=O)N(C)CC#N)cc1)CC2`, the IC50 was below 800 nM.

In the case of `CC(=O)Nc1nc2c(s1)-c1nn(C3C=CCCC3)cc1CC2` (centres undefined), the IC50 was below 800 nM.

Molecule `CC(=O)Nc1nc2c(s1)-c1c(cnn1-c1cc(O)cc(Cl)c1)CC2` returned a half-maximal inhibitory concentration (IC50) below 800 nM.

Regarding `CN1CCN(C(=O)Nc2nc3c(s2)-c2c(cnn2-c2ccccc2)C3)CC1`, the IC50 is below 800 nM.

Turning to `CNC(=O)c1ccc(-n2nc(-c3ccco3)c3c2-c2sc(NC(C)=O)nc2CC3)c(Cl)c1`, the 50% inhibitory concentration (IC50) is below 800 nM.

In turn, `CC(=O)Nc1nc2c(s1)-c1c(cnn1-c1ccc(C(=O)N3CCC[C@H]3C(=O)O)cc1)CC2` yielded a half-inhibitory concentration (IC50) below 800 nM.

With `CC(=O)Nc1nc2c(s1)-c1nn(C(=O)C(C)C)cc1CC2`, the half-maximal inhibitory concentration (IC50) was below 800 nM.

Regarding `O=C(Nc1nc2c(s1)-c1nc(-c3ccccc3)ncc1CC2)N1CCOCC1`, the IC50 is below 800 nM.

Consider `CC(=O)NCCCC[C@H](NC(=O)c1ccc(-n2ncc3c2-c2sc(NC(C)=O)nc2CC3)c(Cl)c1)C(N)=O`, for which the IC50 was below 800 nM.

In the case of `CC(=O)Nc1nc2c(s1)-c1c(cnn1-c1ccc(C(=O)Nc3ccc(NC(C)(C)CN(C)C)cc3)cc1)CC2`, the half-maximal inhibitory concentration (IC50) is below 800 nM.

On to `CN(C)CCN(C)C(=O)Nc1nc2c(s1)-c1c(cnn1-c1ccccc1)C2`, for which the 50% inhibitory concentration (IC50) is below 800 nM.

The molecule `CC(=O)Nc1nc2c(s1)-c1c(cnn1-c1ccc(C(=O)NCCCn3ccnc3)cc1)CC2` registered a 50% inhibitory concentration (IC50) below 800 nM.

For the molecule `CC(=O)Nc1nc2c(s1)-c1c(cnn1-c1ccc(C(=O)N[C@@H](Cc3cccnc3)C(N)=O)cc1Cl)CC2`, the IC50 is below 800 nM.

The molecule `NC(=O)Nc1nc2c(s1)-c1nc(-c3ccccc3)ncc1CC2` displayed a half-maximal inhibitory concentration (IC50) below 800 nM.

`CC(=O)Nc1nc2c(s1)-c1c(cnn1-c1ccc(C(=O)N3CCC4(CC3)CNC(=O)O4)cc1)CC2` returned an IC50 below 800 nM.

`CC(=O)Nc1nc2c(s1)-c1nc(N3CCCC3=O)ncc1CC2` returned an IC50 below 800 nM.

For `CC(=O)Nc1nc2c(s1)-c1c(cnn1-c1ccc(CC(=O)NCCCN3CCOCC3)cc1)CC2`, the IC50 is below 800 nM.

Regarding `CC(=O)Nc1nc2c(s1)-c1cc([N+](=O)[O-])ccc1CC2`, the concentration for half-maximal inhibition (IC50) is below 800 nM.

Molecule `CC(=O)Nc1nc2c(s1)-c1c(cnn1-c1cccc(N3C4CCC3CC(O)C4)c1)CC2` (centres undefined) registered an IC50 below 800 nM.

In turn, `CC(=O)Nc1nc2c(s1)-c1nc(N(C)CCN(C)C)ncc1CC2` showed a half-inhibitory concentration (IC50) below 800 nM.

Consider `O=C(NCCN1CCOCC1)Nc1nc2c(s1)-c1c(cnn1-c1ccccc1)CC2`, for which the IC50 was below 800 nM.

As for `CC(=O)Nc1nc2c(s1)-c1c(cnn1-c1ccc(C(=O)N[C@@H](Cc3ccccc3)C(N)=O)cc1Cl)CC2`, the half-inhibitory concentration (IC50) is below 800 nM.

`O=C(Nc1nc2c(s1)-c1c(cnn1-c1ccccc1)C2)N1CCCCC1` gave a concentration for half-maximal inhibition (IC50) below 800 nM.

`CC(=O)Nc1nc2c(s1)-c1nc(-c3ccccc3)ncc1C2` had an IC50 below 800 nM.

In turn, `CC(=O)Nc1nc2c(s1)-c1c(cnn1-c1ccc(C(=O)N[C@H](C(N)=O)[C@@H](C)O)cc1Cl)CC2` registered an IC50 below 800 nM.

Molecule `CC(=O)Nc1nc2c(s1)-c1c(cnn1-c1ccc(C(=O)NCc3ccnn3C)cc1)CC2` showed an IC50 below 800 nM.

In turn, `CC(C)c1nn(-c2ccccc2Cl)c2c1CCc1nc(NC(N)=O)sc1-2` came in with an IC50 below 800 nM.

In turn, `CC(=O)Nc1nc2c(s1)-c1c(cnn1-c1ccccc1Br)C2` registered an IC50 below 800 nM.

Molecule `CC(=O)Nc1nc2c(s1)-c1c(cnn1-c1ccccc1F)C2` displayed a concentration for half-maximal inhibition (IC50) below 800 nM.

The molecule `CC(=O)Nc1nc2c(s1)-c1nc(-c3ccccc3)[nH]c(=O)c1CC2` returned an IC50 below 800 nM.

Consider `CC(=O)Nc1nc2c(s1)-c1nn(-c3ccccc3F)c(-c3ccco3)c1CC2`, for which the concentration for half-maximal inhibition (IC50) is below 800 nM.

Consider `CC(=O)Nc1nc2c(s1)-c1c(cnn1-c1ccc(C(=O)N3CCC[C@H]3C(N)=O)cc1)CC2`, for which the IC50 is below 800 nM.

For the molecule `CC(=O)Nc1nc2c(s1)-c1c(c(C)nn1-c1ccccc1C(F)(F)F)CC2`, the IC50 is below 800 nM.

Take `CC(=O)Nc1nc2c(s1)-c1nc(-c3ccc(C)cc3)ncc1CC2`: the half-maximal inhibitory concentration (IC50) is below 800 nM.

Turning to `CC(=O)Nc1nc2c(s1)-c1c(cnn1-c1ccc(C(=O)N3CCC(NC(=O)c4ccccc4)CC3)cc1)CC2`, the half-maximal inhibitory concentration (IC50) is below 800 nM.

As to `CC(=O)Nc1nc2c(s1)-c1nc(Cc3ccccc3)ncc1CC2`, the IC50 is below 800 nM.

`CC(=O)Nc1nc2c(s1)-c1nc(CCc3ccccc3)ncc1CC2` displayed a half-inhibitory concentration (IC50) below 800 nM.

Molecule `CC(=O)Nc1nc2c(s1)-c1c(cnn1-c1ccccc1C(C)C)C2` registered an IC50 below 800 nM.

`COc1ccccc1-n1nc(-c2ccccc2)c2c1-c1sc(NC(C)=O)nc1CC2`: the half-maximal inhibitory concentration (IC50) was below 800 nM.

With `CC(=O)Nc1nc2c(s1)-c1c(cnn1-c1ccc(S(C)(=O)=O)cc1)C2`, the 50% inhibitory concentration (IC50) was below 800 nM.

Consider `CC(=O)Nc1nc2c(s1)-c1c(cnn1-c1ccc(C(=O)N3CCC(N4CCCS4(=O)=O)CC3)cc1)CC2`, for which the 50% inhibitory concentration (IC50) was below 800 nM.

Molecule `Nc1nc2c(s1)-c1c(cnn1-c1ccccc1)C2` showed an IC50 below 800 nM.

In turn, `NCC(=O)Nc1nc2c(s1)-c1c(cnn1-c1ccccc1)CC2` registered an IC50 below 800 nM.

On to `CC(=O)Nc1nc2c(s1)-c1c(c(-c3ccco3)nn1-c1ccccc1C)CC2`, for which the IC50 was below 800 nM.

In the case of `CC(=O)Nc1nc2c(s1)-c1nc(N3CCCC(CNC(C)C)C3)ncc1CC2` (centres undefined), the concentration for half-maximal inhibition (IC50) is below 800 nM.

`CC(=O)Nc1nc2c(s1)-c1c(cnn1-c1ccccc1)CC2` had a 50% inhibitory concentration (IC50) below 800 nM.

The molecule `CC(=O)Nc1nc2c(s1)-c1c(cnn1-c1ccc(C(=O)N[C@H]3CC[C@H](N(Cc4ccccc4)Cc4ccccc4)CC3)cc1)CC2` yielded a half-maximal inhibitory concentration (IC50) below 800 nM.

`CC(=O)Nc1nc2c(s1)-c1c(c(-c3ccco3)nn1-c1ccc(C(=O)N[C@H]3CC[C@@H](N4CCCC4)CC3)cc1Cl)CC2` registered an IC50 below 800 nM.

Consider `CC(=O)Nc1nc2c(s1)-c1c(cnn1C(N)=O)CC2`, for which the concentration for half-maximal inhibition (IC50) was below 800 nM.

As for `COc1ccc(-n2ncc3c2-c2sc(NC(C)=O)nc2CC3)cc1`, the IC50 is below 800 nM.

The molecule `CC(=O)Nc1nc2c(s1)-c1nc(C)ncc1CC2` had an IC50 below 800 nM.

In turn, `COC(=O)c1nn(-c2ccccc2C(F)(F)F)c2c1CCc1nc(NC(C)=O)sc1-2` had a concentration for half-maximal inhibition (IC50) below 800 nM.

The molecule `CC(=O)Nc1nc2c(s1)-c1c(cnn1-c1ccc(C(=O)N[C@H](CCCCN)C(N)=O)cc1Cl)CC2` yielded an IC50 below 800 nM.

Turning to `CC(=O)Nc1nc2c(s1)-c1c(c(-c3ccccn3)nn1-c1ccccc1Br)CC2`, the IC50 was below 800 nM.

For the molecule `CC(=O)Nc1nc2c(s1)-c1c(cnn1CCc1ccccc1)CC2`, the IC50 is below 800 nM.

`CC(=O)Nc1nc2c(s1)-c1c(c(N)nn1-c1ccccc1Cl)CC2` returned an IC50 below 800 nM.

Consider `CC(=O)Nc1nc2c(s1)-c1nc(C(C)C)ncc1CC2`, for which the IC50 was below 800 nM.

`CC(=O)Nc1nc2c(s1)-c1c(cnn1-c1ccc(C(=O)N3CCN(NC(=O)c4ccc(F)cc4)CC3)cc1)CC2` gave a half-maximal inhibitory concentration (IC50) below 800 nM.

On to `NC(=O)Nc1nc2c(s1)-c1c(cnn1-c1ccccc1)C2`, for which the IC50 is below 800 nM.

`CNC(=O)Nc1nc2c(s1)-c1nc(N(C)C)ncc1CC2`: the IC50 was below 800 nM.

With `CC(=O)Nc1nc2c(s1)-c1c(cnn1-c1ccc(C(=O)N3CCN(C)CC3)cc1)CC2`, the 50% inhibitory concentration (IC50) is below 800 nM.

In turn, `CC(=O)Nc1nc2c(s1)-c1c(cnn1-c1ccc(C(=O)NC3CCN(C)CC3)cc1)CC2` returned a 50% inhibitory concentration (IC50) below 800 nM.

`CC(=O)Nc1nc2c(s1)-c1c(cnn1C1C=CCCC1)CC2` (centres undefined) yielded an IC50 below 800 nM.

In turn, `CC(=O)Nc1nc2c(s1)-c1c(cnn1-c1ccc(CC(=O)NC3CCS(=O)(=O)C3)cc1)CC2` (centres undefined) showed a concentration for half-maximal inhibition (IC50) below 800 nM.

Molecule `O=CNc1nc2c(s1)-c1nc(-c3ccccc3)ncc1CC2` had an IC50 below 800 nM.

`CN(C)CCCC(=O)Nc1nc2c(s1)-c1c(cnn1-c1ccccc1)CC2` had an IC50 below 800 nM.

In turn, `CC(=O)Nc1nc2c(s1)-c1c(cnn1-c1ccc(C(=O)NCc3nccn3C)cc1)CC2` gave an IC50 below 800 nM.

Turning to `CC(=O)Nc1nc2c(s1)-c1c(cnn1-c1ccc(CC(=O)NCCN3CCCC3=O)cc1)CC2`, the IC50 is below 800 nM.

In the case of `COc1ccccc1-n1nc(-c2ccco2)c2c1-c1sc(NC(C)=O)nc1CC2`, the IC50 is below 800 nM.

As to `CC(=O)Nc1nc2c(s1)-c1c(cnn1-c1ccc(C(=O)N(C)CC(=O)N(C)C)cc1)CC2`, the IC50 is below 800 nM.

In turn, `CC(=O)Nc1nc2c(s1)-c1c(cnn1-c1ccc(OC(F)(F)F)cc1)CC2` displayed a concentration for half-maximal inhibition (IC50) below 800 nM.

Molecule `CCSc1ncc2c(n1)-c1sc(NC(C)=O)nc1CC2` displayed an IC50 below 800 nM.

Molecule `CC(=O)Nc1nc2c(s1)-c1c(c(C(C)C)nn1-c1ccc(C(=O)N[C@H]3CC[C@H](N4CCCC4)CC3)cc1Cl)CC2` had an IC50 below 800 nM.

In turn, `CC(=O)Nc1nc2c(s1)-c1c(cnn1-c1ccc(C(=O)N[C@@H](CCC(=O)O)C(N)=O)cc1Cl)CC2` registered a half-maximal inhibitory concentration (IC50) below 800 nM.

For the molecule `CC(=O)Nc1nc2c(s1)-c1c(c(C(C)C)nn1-c1ccccc1Br)CC2`, the IC50 was below 800 nM.

With `CC(=O)Nc1nc2c(s1)-c1c(c([C@H]3CCCO3)nn1-c1ccccc1Cl)CC2`, the IC50 was below 800 nM.

Molecule `CC(=O)Nc1nc2c(s1)-c1nc(C3CCCCC3)ncc1CC2` yielded an IC50 below 800 nM.

Molecule `CCN(CCO)C(=O)c1ccc(-n2ncc3c2-c2sc(NC(C)=O)nc2CC3)cc1` came in with an IC50 below 800 nM.

In turn, `NC(=O)[C@@H]1CCCN1CC(=O)Nc1nc2c(s1)-c1c(cnn1-c1ccccc1)CC2` had an IC50 below 800 nM.

Molecule `CC(=O)Nc1nc2c(s1)-c1c(cnn1-c1ccc(C)cc1)C2` returned an IC50 below 800 nM.

As to `CC(=O)Nc1nc2c(s1)-c1c(cnn1-c1ccc(C(=O)N3CCC[C@@H]3C(N)=O)cc1)CC2`, the concentration for half-maximal inhibition (IC50) was below 800 nM.

`CC(=O)Nc1nc2c(s1)-c1c(c(C(C)C)nn1-c1ccccc1C(F)(F)F)CC2`: the IC50 was below 800 nM.
